Data: article PMC10830516 (Current Research in Structural Biology, 2024)
Square brackets hold non-standard residues; d marks the D form. Peptide text beside a SMILES is read from it. * marks the point of attachment. Sta = CC(C)C[C@H](N)[C@@H](O)CC(=O)O; Isovaleryl = CC(C)CC(=O)*

Legend:
PMII = conditions: cited from earlier work
plasmepsin II (PMII) = plasmepsin II (PMII) (Plasmodium falciparum, UniProt P46925); assay: Inhibition of PMII hydrolysis of Hb-based fluorogenic peptide substrate; type: biochemical, P. falciparum
Chain of plasmepsin II (PMII) (P46925 125-453): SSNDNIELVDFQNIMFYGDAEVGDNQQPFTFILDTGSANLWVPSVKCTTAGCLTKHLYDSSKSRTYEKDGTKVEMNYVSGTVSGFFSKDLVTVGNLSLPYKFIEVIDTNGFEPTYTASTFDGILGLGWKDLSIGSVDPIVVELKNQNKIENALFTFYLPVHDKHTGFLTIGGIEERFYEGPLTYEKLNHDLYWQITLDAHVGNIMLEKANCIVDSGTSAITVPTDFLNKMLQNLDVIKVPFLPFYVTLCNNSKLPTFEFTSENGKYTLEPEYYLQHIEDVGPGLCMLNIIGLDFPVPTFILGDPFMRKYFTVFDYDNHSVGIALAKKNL

plasmepsin X (PMX) = plasmepsin X (PMX) (Plasmodium falciparum, UniProt Q8IAS0); assay: Inhibition of PMX hydrolysis of Rh2N fluorogenic peptide substrate; type: biochemical, P. falciparum; conditions: Ki against PMX, mature PMX, pH 5.5, 1 μM Rh2N substrate; Ki by Cheng-Prusoff
Chain of plasmepsin X (PMX) (Q8IAS0 235-573): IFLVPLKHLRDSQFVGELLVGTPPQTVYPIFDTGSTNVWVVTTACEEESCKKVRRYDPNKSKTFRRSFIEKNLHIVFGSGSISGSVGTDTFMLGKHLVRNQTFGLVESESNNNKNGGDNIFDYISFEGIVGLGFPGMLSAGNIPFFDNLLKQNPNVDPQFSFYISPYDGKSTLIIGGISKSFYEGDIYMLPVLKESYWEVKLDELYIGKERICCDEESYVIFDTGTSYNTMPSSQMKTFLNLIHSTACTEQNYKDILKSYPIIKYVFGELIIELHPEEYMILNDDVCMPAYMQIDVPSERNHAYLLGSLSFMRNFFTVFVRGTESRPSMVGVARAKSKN

| SMILES | Ki (PMII; PMII complex PDB ID 1XDH, ref Silva et al., 1996) | Ki (plasmepsin II (PMII)) | Ki (plasmepsin X (PMX)) | IC50 (PMII; achiral inhibitors, ref Boss et al., 2006, Prade et al., 2005) |
| --- | --- | --- | --- | --- |
| CC(C)CC(=O)N[C@H](C(=O)N[C@H](C(=O)N[C@@H](CC(C)C)[C@@H](O)CC(=O)N[C@@H](C)C(=O)N[C@@H](CC(C)C)[C@@H](O)CC(=O)O)C(C)C)C(C)C [pepstatin A] (Isovaleryl-VV[Sta]A[Sta]-OH) | 0.006 nM |  |  |  |
| CC(C)(C)NC(=O)[C@@H]1CN(Cc2cccnc2)CCN1C[C@@H](O)C[C@@H](Cc1ccccc1)C(=O)N[C@H]1c2ccccc2C[C@H]1O [IDV, Indinavir] |  | 2400 nM |  |  |
| Cc1c(O)cccc1C(=O)N[C@@H](CSc1ccccc1)[C@H](O)CN1C[C@H]2CCCC[C@H]2C[C@H]1C(=O)NC(C)(C)C [NFV, Nelfinavir] |  | 1400 nM | 60000 nM |  |
| Cc1cccc(C)c1OCC(=O)N[C@@H](Cc1ccccc1)[C@@H](O)C[C@H](Cc1ccccc1)NC(=O)[C@H](C(C)C)N1CCCNC1=O [LPV, Lopinavir] |  | 700 nM | 14000 nM |  |
| CC(C)(C)NC(=O)[C@@H]1C[C@@H]2CCCC[C@@H]2CN1C[C@@H](O)[C@H](Cc1ccccc1)NC(=O)[C@H](CC(N)=O)NC(=O)c1ccc2ccccc2n1 [SQV, Saquinavir] |  | 1000 nM | 44000 nM |  |
| CCCCCc1ccc(C(=O)N(Cc2ccc(-c3ccc(C(=O)N4CCCCC4)cc3)cc2)C2CCN(Cc3ccccn3)CC2)nc1 [2IGX] |  |  |  | 54 nM |
